How the values were obtained:
Experiment in all cases: HDAC enzyme inhibition assay (Ac-peptide-AMC substrate)
Format in all cases: biochemical
HDAC6 = target: T1, HDAC6 (Homo sapiens, UniProt Q9UBN7)
T1 sequence (Q9UBN7 1-1215): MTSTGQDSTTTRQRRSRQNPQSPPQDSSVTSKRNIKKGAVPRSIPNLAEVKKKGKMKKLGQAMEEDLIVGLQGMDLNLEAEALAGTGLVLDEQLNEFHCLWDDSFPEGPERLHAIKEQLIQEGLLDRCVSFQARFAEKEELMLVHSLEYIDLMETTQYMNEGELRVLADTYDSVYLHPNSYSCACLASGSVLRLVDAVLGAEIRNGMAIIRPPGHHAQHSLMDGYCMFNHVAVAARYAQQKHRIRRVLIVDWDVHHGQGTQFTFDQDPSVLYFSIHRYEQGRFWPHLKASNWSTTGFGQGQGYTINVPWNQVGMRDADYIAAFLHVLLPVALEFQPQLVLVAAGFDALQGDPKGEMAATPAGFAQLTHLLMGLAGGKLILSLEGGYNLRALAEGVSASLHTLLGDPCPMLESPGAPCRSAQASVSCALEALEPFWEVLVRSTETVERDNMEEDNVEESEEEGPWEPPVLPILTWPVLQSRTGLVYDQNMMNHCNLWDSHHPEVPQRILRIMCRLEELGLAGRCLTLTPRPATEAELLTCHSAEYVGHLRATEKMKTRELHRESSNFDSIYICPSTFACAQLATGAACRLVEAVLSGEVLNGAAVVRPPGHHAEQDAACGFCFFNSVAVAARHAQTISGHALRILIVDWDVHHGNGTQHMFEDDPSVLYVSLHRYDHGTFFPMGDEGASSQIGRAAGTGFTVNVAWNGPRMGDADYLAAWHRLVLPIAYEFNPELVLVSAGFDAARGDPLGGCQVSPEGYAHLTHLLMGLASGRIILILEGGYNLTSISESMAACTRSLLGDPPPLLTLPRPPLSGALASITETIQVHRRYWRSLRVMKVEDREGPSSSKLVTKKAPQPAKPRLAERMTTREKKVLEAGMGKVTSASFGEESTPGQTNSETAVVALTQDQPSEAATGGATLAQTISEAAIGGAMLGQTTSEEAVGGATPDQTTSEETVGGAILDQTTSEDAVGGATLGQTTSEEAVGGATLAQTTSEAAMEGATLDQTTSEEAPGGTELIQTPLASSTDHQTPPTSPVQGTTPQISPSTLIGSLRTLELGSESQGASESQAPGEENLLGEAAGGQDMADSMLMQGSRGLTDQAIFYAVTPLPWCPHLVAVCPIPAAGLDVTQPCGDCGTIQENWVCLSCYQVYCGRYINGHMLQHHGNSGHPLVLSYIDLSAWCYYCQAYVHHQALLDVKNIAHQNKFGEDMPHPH
Method: (§1) HDACs inhibition assay of F7 was performed utilizing 4-amino-7-methylcoumarin (AMC) labeled Ac-peptide (Ac-peptide-AMC) substrates, a service provided by Chempartner Company (Shanghai, China).
(§2) This assay was performed was performed utilizing 4-amino-7-methylcoumarin (AMC) labeled Ac-peptide (Ac-peptide-AMC) substrates, a service provided by Chempartner Company (Shanghai, China).

HDAC4 = HDAC4 (Homo sapiens, UniProt P56524)
Chain of HDAC4 (P56524 whole entry, species assumed): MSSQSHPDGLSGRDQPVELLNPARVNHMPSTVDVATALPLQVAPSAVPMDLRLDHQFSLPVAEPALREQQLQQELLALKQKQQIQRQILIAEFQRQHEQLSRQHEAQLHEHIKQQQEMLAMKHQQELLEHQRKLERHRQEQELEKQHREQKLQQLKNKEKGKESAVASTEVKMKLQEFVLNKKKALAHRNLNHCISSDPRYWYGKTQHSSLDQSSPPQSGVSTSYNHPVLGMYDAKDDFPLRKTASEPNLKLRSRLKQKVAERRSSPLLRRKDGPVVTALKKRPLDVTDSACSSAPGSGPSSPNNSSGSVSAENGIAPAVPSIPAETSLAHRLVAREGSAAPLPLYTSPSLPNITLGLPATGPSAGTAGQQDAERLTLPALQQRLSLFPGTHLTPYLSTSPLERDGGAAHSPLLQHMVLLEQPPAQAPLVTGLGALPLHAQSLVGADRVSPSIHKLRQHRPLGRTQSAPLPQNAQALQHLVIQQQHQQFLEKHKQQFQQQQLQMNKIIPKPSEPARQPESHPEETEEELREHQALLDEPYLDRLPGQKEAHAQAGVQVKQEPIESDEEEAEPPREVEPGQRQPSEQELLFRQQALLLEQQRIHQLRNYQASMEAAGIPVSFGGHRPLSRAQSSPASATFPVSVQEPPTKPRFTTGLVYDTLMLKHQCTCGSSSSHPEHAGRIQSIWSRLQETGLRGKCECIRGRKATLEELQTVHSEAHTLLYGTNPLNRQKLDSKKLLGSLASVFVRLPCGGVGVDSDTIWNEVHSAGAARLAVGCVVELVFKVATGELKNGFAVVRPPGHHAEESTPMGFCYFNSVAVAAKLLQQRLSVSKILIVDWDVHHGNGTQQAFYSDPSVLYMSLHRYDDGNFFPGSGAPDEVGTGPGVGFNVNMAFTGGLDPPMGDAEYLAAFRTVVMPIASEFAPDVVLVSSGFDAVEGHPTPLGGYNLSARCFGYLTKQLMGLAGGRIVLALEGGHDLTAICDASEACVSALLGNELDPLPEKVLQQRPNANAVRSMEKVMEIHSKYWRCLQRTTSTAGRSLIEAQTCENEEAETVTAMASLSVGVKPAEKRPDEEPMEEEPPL
Method: as §1, §2

HDAC5 = HDAC5 (Homo sapiens, UniProt Q9UQL6)
Chain of HDAC5 (Q9UQL6 whole entry, species assumed): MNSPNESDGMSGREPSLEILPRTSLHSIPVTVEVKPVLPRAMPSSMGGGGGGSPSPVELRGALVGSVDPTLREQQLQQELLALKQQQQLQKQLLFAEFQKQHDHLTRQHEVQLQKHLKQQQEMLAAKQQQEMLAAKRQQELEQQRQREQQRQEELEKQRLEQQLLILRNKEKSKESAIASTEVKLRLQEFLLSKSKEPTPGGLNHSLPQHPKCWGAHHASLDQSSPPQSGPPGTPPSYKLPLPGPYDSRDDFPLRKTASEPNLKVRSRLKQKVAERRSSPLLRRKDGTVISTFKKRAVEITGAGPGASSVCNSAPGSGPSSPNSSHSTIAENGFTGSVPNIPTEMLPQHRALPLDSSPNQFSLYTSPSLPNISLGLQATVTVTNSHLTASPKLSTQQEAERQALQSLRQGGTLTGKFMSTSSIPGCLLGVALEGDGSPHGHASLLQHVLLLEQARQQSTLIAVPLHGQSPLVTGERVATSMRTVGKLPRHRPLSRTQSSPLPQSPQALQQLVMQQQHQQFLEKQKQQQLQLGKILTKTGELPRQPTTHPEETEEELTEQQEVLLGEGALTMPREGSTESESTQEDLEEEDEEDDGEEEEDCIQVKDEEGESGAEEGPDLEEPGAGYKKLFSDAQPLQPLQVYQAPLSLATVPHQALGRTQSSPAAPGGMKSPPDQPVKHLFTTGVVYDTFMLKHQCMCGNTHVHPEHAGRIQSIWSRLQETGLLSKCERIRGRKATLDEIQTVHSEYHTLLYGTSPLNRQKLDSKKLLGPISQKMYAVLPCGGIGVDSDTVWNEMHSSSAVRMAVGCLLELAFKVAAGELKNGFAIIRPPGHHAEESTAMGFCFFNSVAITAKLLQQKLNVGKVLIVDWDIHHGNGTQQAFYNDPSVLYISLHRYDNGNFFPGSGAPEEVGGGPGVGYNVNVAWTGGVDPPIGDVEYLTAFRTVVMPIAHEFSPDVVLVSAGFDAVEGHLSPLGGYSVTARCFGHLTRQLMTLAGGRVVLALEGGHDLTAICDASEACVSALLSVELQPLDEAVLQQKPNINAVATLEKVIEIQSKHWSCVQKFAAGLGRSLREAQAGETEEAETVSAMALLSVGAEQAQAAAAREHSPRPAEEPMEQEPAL
Method: as §1, §2

- HDAC6 inhibition efficacy of F7 compared with 23BB (HDAC6): three times higher
- IC50 (HDAC6): 0.0058 µM
- selectivity of HDAC6 versus other HDACs (HDAC6): 110-1724 times
- IC50 (HDAC4): > 10 µM
- IC50 (HDAC5): > 10 µM
Structure (SMILES): Cc1nc(N(C)c2ccc(Oc3ccc(C(=O)NO)cn3)cc2)c2ccccc2n1 [F7, N-hydroxy-6-(4-(methyl(2-methylquinazolin-4-yl)amino)phenoxy)nicotinamide]
